# How the values were obtained:
# Format in all cases: in vivo
# [1] = system: Ambrosia artemisifolia (AMBEL); experiment: Pre-emergence test; settings: 3 weeks after treatment
# Procedure: (§1) To evaluate their herbicidal activity, compounds according to the invention are tested using a representative range of plants: […] The pre-emergence tests involve spraying a liquid formulation of the compound onto the soil in which the seeds of the plant species mentioned above has recently been sown. The soil used in the tests is a prepared horticultural loam. […] In these tests untreated sown soil are used as controls.
# [2] = system: Galium aparine (GALAP); experiment: Pre-emergence test; settings: 3 weeks after treatment
# Procedure: as §1
# [3] = system: Lolium multiflorum (LOLMU); experiment: Pre-emergence test; settings: 3 weeks after treatment
# Procedure: as §1
# [4] = system: Lamium purpureum (LAMPU); experiment: Pre-emergence test; settings: 3 weeks after treatment
# Procedure: as §1
# [5] = system: Setaria viridis (SETVI); experiment: Pre-emergence test; settings: 3 weeks after treatment
# Procedure: as §1
# [6] = system: Matricaria inodora (MATIN); experiment: Pre-emergence test; settings: 3 weeks after treatment
# Procedure: as §1
# [7] = system: Ipomoea hederacea (IPOHE); experiment: Pre-emergence test; settings: 3 weeks after treatment
# Procedure: as §1
# [8] = system: Cassia obtusifolia (CASOB); experiment: Pre-emergence test; settings: 3 weeks after treatment
# Procedure: as §1
# [9] = system: Alopecurus myosuroides (ALOMY); experiment: Pre-emergence test; settings: 3 weeks after treatment
# Procedure: as §1
# [10] = system: Abutilon theophrasti (ABUTH); experiment: Pre-emergence test; settings: 3 weeks after treatment
# Procedure: as §1
# [11] = system: Digitaria sanguinalis (DIGSA); experiment: Pre-emergence test; settings: 3 weeks after treatment
# Procedure: as §1
# [12] = system: Echinochloa crus-galli (ECHCG); experiment: Pre-emergence test; settings: 3 weeks after treatment
# Procedure: as §1
# [13] = system: thirteen weed species (broadleaf weeds and grasses); experiment: Pre-emergence test, summary over all weeds; settings: for Number of weed species well / sufficiently controlled: out of thirteen species
# Procedure: as §1
structure (smiles),measurement,setting,value
Cn1nc(C(F)(F)F)cc1Oc1cccc(-n2ccc(C(F)(F)F)n2)n1 [Comparison],Assessment rating AMBEL (pre-emergence application),[1]; 0.100 kg/ha,6 (6 - Herbicidal effect)
same,Assessment rating AMBEL (pre-emergence application),[1]; 0.400 kg/ha,8 (8 - Approaching complete kill)
same,Assessment rating GALAP (pre-emergence application),[2]; 0.013 kg/ha,0 (0 - No effect)
same,Assessment rating GALAP (pre-emergence application),[2]; 0.025 kg/ha,1 (1 - Trace effect)
same,Assessment rating GALAP (pre-emergence application),[2]; 0.100 kg/ha,2 (2 - Slight effect)
same,Assessment rating GALAP (pre-emergence application),[2]; 0.400 kg/ha,8 (8 - Approaching complete kill)
same,Assessment rating LOLMU (pre-emergence application),[3]; 0.013 kg/ha,3 (3 - Moderate effect)
same,Assessment rating LOLMU (pre-emergence application),[3]; 0.025 kg/ha,5 (5 - Definite injury)
same,Assessment rating LOLMU (pre-emergence application),[3]; 0.100 kg/ha,8 (8 - Approaching complete kill)
same,Assessment rating LOLMU (pre-emergence application),[3]; 0.400 kg/ha,8 (8 - Approaching complete kill)
same,Assessment rating LAMPU (pre-emergence application),[4]; 0.013 kg/ha,1 (1 - Trace effect)
same,Assessment rating LAMPU (pre-emergence application),[4]; 0.025 kg/ha,6 (6 - Herbicidal effect)
same,Assessment rating LAMPU (pre-emergence application),[4]; 0.100 kg/ha,8 (8 - Approaching complete kill)
same,Assessment rating LAMPU (pre-emergence application),[4]; 0.400 kg/ha,8 (8 - Approaching complete kill)
same,Assessment rating SETVI (pre-emergence application),[5]; 0.013 kg/ha,2 (2 - Slight effect)
same,Assessment rating SETVI (pre-emergence application),[5]; 0.025 kg/ha,2 (2 - Slight effect)
same,Assessment rating SETVI (pre-emergence application),[5]; 0.100 kg/ha,8 (8 - Approaching complete kill)
same,Assessment rating SETVI (pre-emergence application),[5]; 0.400 kg/ha,9 (9 - Complete kill)
same,Assessment rating MATIN (pre-emergence application),[6]; 0.013 kg/ha,2 (2 - Slight effect)
same,Assessment rating MATIN (pre-emergence application),[6]; 0.025 kg/ha,7 (7 - Good herbicidal effect)
same,Assessment rating MATIN (pre-emergence application),[6]; 0.100 kg/ha,9 (9 - Complete kill)
same,Assessment rating MATIN (pre-emergence application),[6]; 0.400 kg/ha,9 (9 - Complete kill)
same,Assessment rating IPOHE (pre-emergence application),[7]; 0.013 kg/ha,0 (0 - No effect)
same,Assessment rating IPOHE (pre-emergence application),[7]; 0.025 kg/ha,1 (1 - Trace effect)
same,Assessment rating IPOHE (pre-emergence application),[7]; 0.100 kg/ha,3 (3 - Moderate effect)
same,Assessment rating IPOHE (pre-emergence application),[7]; 0.400 kg/ha,7 (7 - Good herbicidal effect)
same,Assessment rating CASOB (pre-emergence application),[8]; 0.013 kg/ha,0 (0 - No effect)
same,Assessment rating CASOB (pre-emergence application),[8]; 0.025 kg/ha,0 (0 - No effect)
same,Assessment rating CASOB (pre-emergence application),[8]; 0.100 kg/ha,2 (2 - Slight effect)
same,Assessment rating CASOB (pre-emergence application),[8]; 0.400 kg/ha,5 (5 - Definite injury)
same,Assessment rating ALOMY (pre-emergence application),[9]; 0.013 kg/ha,0 (0 - No effect)
same,Assessment rating ALOMY (pre-emergence application),[9]; 0.025 kg/ha,1 (1 - Trace effect)
same,Assessment rating ALOMY (pre-emergence application),[9]; 0.100 kg/ha,4 (4 - Injury)
same,Assessment rating ALOMY (pre-emergence application),[9]; 0.400 kg/ha,8 (8 - Approaching complete kill)
same,Assessment rating ABUTH (pre-emergence application),[10]; 0.013 kg/ha,0 (0 - No effect)
same,Assessment rating ABUTH (pre-emergence application),[10]; 0.025 kg/ha,0 (0 - No effect)
same,Assessment rating ABUTH (pre-emergence application),[10]; 0.100 kg/ha,5 (5 - Definite injury)
same,Assessment rating ABUTH (pre-emergence application),[10]; 0.400 kg/ha,9 (9 - Complete kill)
same,Assessment rating DIGSA (pre-emergence application),[11]; 0.013 kg/ha,9 (9 - Complete kill)
same,Assessment rating DIGSA (pre-emergence application),[11]; 0.025 kg/ha,9 (9 - Complete kill)
same,Assessment rating DIGSA (pre-emergence application),[11]; 0.100 kg/ha,9 (9 - Complete kill)
same,Assessment rating DIGSA (pre-emergence application),[11]; 0.400 kg/ha,9 (9 - Complete kill)
same,Assessment rating ECHCG (pre-emergence application),[12]; 0.013 kg/ha,0 (0 - No effect)
same,Assessment rating ECHCG (pre-emergence application),[12]; 0.025 kg/ha,2 (2 - Slight effect)
same,Assessment rating ECHCG (pre-emergence application),[12]; 0.100 kg/ha,4 (4 - Injury)
same,Assessment rating ECHCG (pre-emergence application),[12]; 0.400 kg/ha,7 (7 - Good herbicidal effect)
same,Active ingredient required for maize selective weed control relative to the compound of the invention,[13],four times more active ingredient
same,"Herbicidal activity, overall judgement",[13],clearly inferior in activity
same,Rate required to obtain the same level of weed control,[13],0.400 kg/ha
same,Number of weed species well / sufficiently controlled,[13]; 0.100 kg/ha,six out of thirteen species
same,Number of weed species well / sufficiently controlled,[13]; 0.400 kg/ha,ten

# — patent US6448204B1, “Herbicidal 2-aryloxy-4-methyl-6-pyrazol-1-yl-pyridines” (BASF Aktiengesellschaft, priority 1999, dated 2002)
